From patent US11331295B2, “High-dose statins for age-related macular degeneration” (MASSACHUSETTS EYE AND EAR INFIRMARY, priority 2015, dated 2022)
Read-outs that look alike come from different tables or passages of the source. Blank lines part the entries; values can stand above or below the compound they belong to.

How the values were obtained:
[1] = system: ARPE-19 cells; assay: Phagocytosis analysis by flow cytometry (fluorescent carboxylate microspheres); format: cell-based, human; conditions: 6 hours; for percentage of ARPE-19 phagocytic cells / mean fluorescence intensity (phagocytic index): 50 μM statin; for percentage of ARPE-19 phagocytic cells: control 31%; for mean fluorescence intensity (phagocytic index): control 332; for percentage of phagocytic ARPE-19 cells: DMSO control 31%; for mean fluorescence intensity of cells: control 340
Procedure: A flow cytometric assay was used to evaluate cell phagocytosis according to a protocol described by Pranab (Mukherjee et al., 2007 Proc Natl Acad Sci USA 104:13158-63). Briefly, ARPE-19 cells were seeded in 12-well plates and cultured until 90% confluent. […] After incubation, cells were washed with PBS three times to remove any extracellular beads, then trypsinized (0.25% trypsin-EDTA, Gibco, US) for 1 minute, and neutralized with pre-warmed culture medium. The cell suspension was collected and centrifuged (241 g, 5 minutes). The cell pellet was re-suspended in 0.5 ml PBS for each sample. Subsequently, the cells were analyzed for green phagocytized fluorescent beads (excitation wavelength of 441 nm and emission wavelength of 486 nm) by a FACScalibur flow cytometer using the CellQuest 3.0.1 (Becton & Dickinson, Mountain View, Calif., US) and FlowJo 10.0 software. The percent of phagocytic cells present in each group was recorded as well as the mean fluorescence intensity of engulfed particles.
The percentage of phagocytic ARPE-19 cells and the mean fluorescence intensity of engulfed particles per group were measured by flow cytometry 6 hours after treatment.
Vavvas et al., 2016 EBioMedicine 5:198-203). […] The effects of cholesterol crystals and ox-LDL on the phagocytic function of RPE cells were studied because impairment of this function is linked to AMD (Nandrot et al., 2007 Adv Exp Med Biol 801:978-1). ARPE-19 cells were treated with 2 mg/ml cholesterol crystals for 6 hours, or 300 μg/ml oxLDL for 18 hours. The phagocytic function was then assessed by flow cytometry, as described in the methods.

[2] = system: patients with AMD with many large, soft drusen/drusenoid PEDs
Procedure: (§1) A case report and pilot multi-center prospective interventional study were conducted with IRB approval. Inclusion criteria were patients over the age of 50 with diagnosis of AMD and the presence of many large, soft drusen/drusenoid PEDs in both eyes. […] Pseudophakia was not a reason for exclusion, unless accompanied by significant posterior capsular opacity.

[3] = system: IL-8; assay: IL-8 secretion from ARPE-19 cells (western blot / ELISA); format: cell-based, human
Procedure: (§2) ARPE-19 cells were seeded in 6-well plates at a density of 1×10^5 cells/well. […] The membrane was then washed and incubated with secondary antibodies. The membrane was developed with enhanced chemiluminescence. The intensity of protein bands was measured using the software Image Lab 4.1 (Bio-Rad, Hercules, Calif., US).
IL-8 induced by oxLDL was measured by analysis of conditioned media of ARPE-19 cells using an ELISA kit (IL-8, R&D Systems, Minneapolis, Minn., US) according to the manufacturer's instructions.
Cholesterol crystals induce the secretion of the inflammatory cytokines IL-6 and IL-8 in ARPE-19 cells (Hu et al., 2014 Discovery Med. 18(97):7-14). […] The levels of IL-6 and IL-8 were evaluated using western blot or ELISA. As expected, cholesterol crystals increased ARPE-19 secretion of IL-6 and IL-8, 3.2- and 2.5-fold, respectively, compared to control treatment (FIGS. 7A and B). […]. […].

[4] = system: IL-6; assay: IL-6 secretion from ARPE-19 cells (western blot of culture medium); format: cell-based, human
Procedure: as §2
Cholesterol crystals induce the secretion of the inflammatory cytokines IL-6 and IL-8 in ARPE-19 cells (Hu et al., 2014 Discovery Med. 18(97):7-14). […] The levels of IL-6 and IL-8 were evaluated using western blot or ELISA. As expected, cholesterol crystals increased ARPE-19 secretion of IL-6 and IL-8, 3.2- and 2.5-fold, respectively, compared to control treatment (FIGS. 7A and B). […] Similar to cholesterol crystals, incubation of ARPE-19 with ox-LDL led to a 2.6- and 1.3-fold increase in secreted IL-6 and IL-8, respectively.

[5] = system: patient with AMD (large soft drusen); assay: Report of initial case: 80 mg atorvastatin daily in a patient with AMD; format: in vivo, human
Procedure: as §1
An otherwise healthy person with AMD presented deteriorating visual acuity. Their baseline visual acuity was 20/25 with significant distortion; they were already taking Age-Related Eye Disease Study (AREDS) supplementation. […] Spectral domain optical coherence tomography (SD-OCT) confirmed the significant extent of these deposits and pigment epithelial detachments as well as the overlying RPE and photoreceptor architectural distortion (FIG. 2, top row). No subretinal or intraretinal fluid was present. Standard AREDS supplementation was continued. […]

[6] = 50 μM atorvastatin, 300 μg/ml ox-LDL 18 hours
[7] = 50 μM atorvastatin, cholesterol crystals
[8] = six months after 80 mg atorvastatin

SMILES: CC[C@H](C)C(=O)O[C@H]1C[C@@H](C)C=C2C=C[C@H](C)[C@H](CC[C@@H]3C[C@@H](O)CC(=O)O3)[C@H]21 [lovastatin]
percentage of ARPE-19 phagocytic cells [1]: 53% | mean fluorescence intensity (phagocytic index) [1]: 502

patients who exited the study (cramps, muscle aches, hair loss) ([2]; of 26 patients enrolled): Three
SMILES: CC(C)c1c(C(=O)Nc2ccccc2)c(-c2ccccc2)c(-c2ccc(F)cc2)n1CC[C@@H](O)C[C@@H](O)CC(=O)O [atorvastatin]
Chol. Reduction ([2]; All (n = 23)): −62 +/− 35 | Last VA (letters) ([2]; All (n = 23), initial 77.6 +/- 8.3): 77.7 +/− 8.4 letters | Last Cholesterol ([2]; All (n = 23), initial 208 +/- 34.9): 147 +/− 31 | Chol. Reduction ([2]; Non Responders (n = 13)): 71 +/− 35.9 | VA gain (loss) ([2]; Non Responders (n = 13)): −2.3 | Last VA (letters) ([2]; Non Responders (n = 13), initial 80.2 +/- 6): 77.9 +/− 7.1 letters | Last Cholesterol ([2]; Non Responders (n = 13), initial 207 +/- 37.4): 136 +/− 24.4 | Chol. Reduction ([2]; Responders (n = 10)): 49 +/− 31.2 | VA gain (loss) ([2]; Responders (n = 10)): +3.3 | Last VA (letters) ([2]; Responders (n = 10), initial 74.2 +/- 9.9): 77.5 +/− 10.3 letters | Last Cholesterol ([2]; Responders (n = 10), initial 210 +/- 33.4): 161 +/− 34.2 | patients showing near-complete regression of drusen deposits ([2]; among 23 patients who completed): eight | effect on progression of pigmentary changes or of pre-existing atrophy ([2]; high-dose atorvastatin): did not appear to have a positive or negative effect | letters lost on average ([2]; non-responders): 2.2 letters | patients who responded to the treatment (regression of drusen deposits) ([2]; patients who completed the pilot study): Ten of 23 | average time to response ([2]; responders): 11.7 months | letters gained on average ([2]; responders): 3 letters | time to response, range ([2]; responders): 3-22 months | levels of IL-8 compared to control ([3]; 0.1 μM atorvastatin pretreatment, cholesterol crystals (2.5-fold alone), western blot): 1.8 fold | levels of IL-8 compared to control ([3]; 0.1 μM atorvastatin pretreatment, ox-LDL (1.3-fold alone), ELISA): 1.2 fold | levels of IL-8 compared to control ([3]; 0.5 μM atorvastatin pretreatment, cholesterol crystals (2.5-fold alone), western blot): 1.6 fold | levels of IL-8 compared to control ([3]; 0.5 μM atorvastatin pretreatment, ox-LDL (1.3-fold alone), ELISA): 1.02 fold | levels of IL-8 compared to control ([3]; 1 μM atorvastatin pretreatment, cholesterol crystals (2.5-fold alone), western blot): 1.1 fold | levels of IL-8 compared to control ([3]; 1 μM atorvastatin pretreatment, ox-LDL (1.3-fold alone), ELISA): 0.99 fold | levels of IL-6 compared to control ([4]; 0.1 μM atorvastatin pretreatment, cholesterol crystals (3.2-fold alone)): 1.7 fold | levels of IL-6 compared to control ([4]; 0.1 μM atorvastatin pretreatment, ox-LDL (2.6-fold alone)): 1.9 fold | levels of IL-6 compared to control ([4]; 0.5 μM atorvastatin pretreatment, ox-LDL (2.6-fold alone)): 1.3 fold | levels of IL-6 compared to control ([4]; 1 μM atorvastatin pretreatment, cholesterol crystals (3.2-fold alone)): 0.8 fold | levels of IL-6 compared to control ([4]; 1 μM atorvastatin pretreatment, ox-LDL (2.6-fold alone)): 1.4 fold | percentage of phagocytic ARPE-19 cells ([1]; 1 μM atorvastatin): 35% | mean fluorescence intensity of cells ([1]; 1 μM atorvastatin): 368 | percentage of phagocytic ARPE-19 cells ([1]; 25 μM atorvastatin): 40% | mean fluorescence intensity of cells ([1]; 25 μM atorvastatin): 443 | decrease in mean fluorescence intensity induced by ox-LDL [1, 6]: completely reversed | decrease in the percentage of phagocytic cells induced by ox-LDL [1, 6]: completely reversed | percentage of phagocytic ARPE-19 cells ([1]; 50 μM atorvastatin): 42% | decrease in mean fluorescence intensity induced by cholesterol crystals [1, 7]: completely reversed | decrease in the percentage of phagocytic cells induced by cholesterol crystals [1, 7]: completely reversed | mean fluorescence intensity of cells ([1]; 50 μM atorvastatin): 453 | percentage of ARPE-19 phagocytic cells [1]: 43% | percentage of phagocytic ARPE-19 cells ([1]; 75 μM atorvastatin): 46% | mean fluorescence intensity of cells ([1]; 75 μM atorvastatin): 467 | visual acuity improved by ([5]; person with AMD, six months after 80 mg atorvastatin daily): 12 letters | atrophy of the RPE (SD-OCT) [5, 8]: without accompanying atrophy of the RPE | drusen (fundus examination and SD-OCT) [5, 8]: complete disappearance of the drusen | visual acuity ([5]; six months after 80 mg atorvastatin daily, 20/30 before treatment): 20/20

SMILES: CCC(C)(C)C(=O)O[C@H]1C[C@@H](C)C=C2C=C[C@H](C)[C@H](CC[C@@H]3C[C@@H](O)CC(=O)O3)[C@H]21 [simvastatin]
percentage of ARPE-19 phagocytic cells [1]: 56% | mean fluorescence intensity (phagocytic index) [1]: 513
